Literature values in US5605915A, “Acetylenes disubstituted with a 5 substituted tetrahydronaphthyl group and with an aryl or heteroaryl group having retinoid-like biological activity” (Allergan, priority 1996, dated 1997).

Test system: ornithine decarboxylase (ODC)
Conditions: literature statement

CC1=C(/C=C/C(C)=C/C=C/C(C)=C/C(=O)O)C(C)(C)CCC1 [Retinoic acid]
effect on ODC activity: inhibits this induction of ODC activity by TPA

CCCCCCCCCCCCCC(=O)O[C@@H]1[C@@H](C)[C@@]2(O)[C@@H](C=C(CO)C[C@]3(O)C(=O)C(C)=C[C@@H]23)[C@@H]2C(C)(C)[C@]12OC(C)=O [12-0-tetradecanoylphorbol-13-acetate]
effect on ODC activity: induces ODC activity
